Measurements: patent US7414060B2, “Pyridine-2-carboxyamide derivatives” (Hoffmann-La Roche Inc., priority 2005, dated 2008)

Target: T1, human mGlu 5a receptor (Homo sapiens, UniProt P41594)
T1 construct: expressed in transfected cells; host or cells: EBNA cells (transient transfection), cell membrane homogenates
Test: [3H]MPEP competition binding on membranes of EBNA cells transfected with human mGlu 5a receptor
Settings: competition with [3H]MPEP (2 nM), 1 h at 4° C., human mGlu 5a receptor membranes; read-out: Ki (mGluR5)
Procedure: The pharmacological activity of the compounds was tested using the following method: For binding experiments, cDNA encoding human mGlu 5a receptor was transiently transfected into EBNA cells using a procedure described by Schlaeger and Christensen [Cytotechnology 15:1-13 (1998)]. Cell membrane homogenates were stored at −80° C. until the day of assay where upon they were thawed and resuspended and polytronized in 15 mM Tris-HCl, 120 mM NaCl, 100 mM KCl, 25 mM CaCl2, 25 mM MgCl2 binding buffer at pH 7.4 to a final assay concentration of 20 μg protein/well.
Saturation isotherms were determined by addition of twelve [^3H]MPEP concentrations (0.04-100 nM) to these membranes (in a total volume of 200 μl) for 1 h at 4° C. Competition experiments were performed with a fixed concentration of [^3H]MPEP (2 nM), and IC50 values of test compounds evaluated using 11 concentrations (0.3-10,000 nM). Incubations were performed for 1 h at 4° C.
At the end of the incubation, membranes were filtered onto unifilter (96-well white microplate with bonded GF/C filter preincubated 1 h in 0.1% PEI in wash buffer, Packard Bio-Science, Meriden, Conn.) with a Filtermate 96 harvester (Packard BioScience) and washed 3 times with cold 50 mM Tris-HCl, pH 7.4 buffer. Nonspecific binding was measured in the presence of 10 μM MPEP. The radioactivity on the filter was counted (3 min) on a Packard Top-count microplate scintillation counter with quenching correction after addition of 45 μl of microscint 40 (Canberra Packard S. A., Zürich, Switzerland) and shaking for 20 min.
The inhibition (antagonists) curves were fitted with a four parameter logistic equation giving IC50, and Hill coefficient using iterative non linear curve fitting software (Xcel fit).
For binding experiments the Ki values of the compounds tested are given. The Ki value is defined by the following formula: Ki=IC50/[1+L/Kd] in which the IC50 values are those concentrations of the compounds tested which cause 50% inhibition of the competing radioligand ([^3H]MPEP). L is the concentration of radioligand used in the binding experiment and the Kd value of the radioligand is empirically determined for each batch of membranes prepared.

T1 sequence (P41594 21-1180 isoform P41594-2 limits assumed): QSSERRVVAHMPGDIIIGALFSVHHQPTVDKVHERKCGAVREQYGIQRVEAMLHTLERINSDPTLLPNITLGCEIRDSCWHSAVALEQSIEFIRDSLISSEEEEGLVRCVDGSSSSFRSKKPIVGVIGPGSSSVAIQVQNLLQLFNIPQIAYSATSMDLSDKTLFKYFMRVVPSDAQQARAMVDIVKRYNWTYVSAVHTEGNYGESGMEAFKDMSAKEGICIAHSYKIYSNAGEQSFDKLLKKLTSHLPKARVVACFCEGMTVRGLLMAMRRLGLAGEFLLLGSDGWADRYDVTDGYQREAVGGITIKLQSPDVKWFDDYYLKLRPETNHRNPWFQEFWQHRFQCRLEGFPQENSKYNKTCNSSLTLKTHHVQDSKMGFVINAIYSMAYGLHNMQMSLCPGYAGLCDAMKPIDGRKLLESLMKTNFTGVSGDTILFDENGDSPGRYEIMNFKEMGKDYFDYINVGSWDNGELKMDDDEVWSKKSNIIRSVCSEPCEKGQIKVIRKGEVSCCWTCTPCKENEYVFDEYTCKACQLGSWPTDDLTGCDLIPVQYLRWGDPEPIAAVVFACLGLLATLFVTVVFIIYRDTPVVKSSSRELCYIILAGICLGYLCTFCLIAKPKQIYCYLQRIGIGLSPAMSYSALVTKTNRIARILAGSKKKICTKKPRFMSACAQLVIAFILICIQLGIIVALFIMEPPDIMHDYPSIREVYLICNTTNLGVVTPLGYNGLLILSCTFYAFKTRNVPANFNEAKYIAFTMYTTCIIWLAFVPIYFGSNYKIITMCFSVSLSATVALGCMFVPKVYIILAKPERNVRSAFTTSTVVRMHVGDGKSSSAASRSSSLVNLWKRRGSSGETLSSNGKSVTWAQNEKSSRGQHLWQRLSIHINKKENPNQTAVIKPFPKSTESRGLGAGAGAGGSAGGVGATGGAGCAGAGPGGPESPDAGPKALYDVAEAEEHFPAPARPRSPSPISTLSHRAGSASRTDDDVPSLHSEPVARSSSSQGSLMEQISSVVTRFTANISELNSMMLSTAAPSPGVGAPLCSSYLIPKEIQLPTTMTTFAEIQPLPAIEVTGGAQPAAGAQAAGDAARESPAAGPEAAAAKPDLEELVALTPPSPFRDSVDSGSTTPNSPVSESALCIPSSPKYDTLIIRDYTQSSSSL

Row | Molecule | Ki
1 | 6-Methyl-3-(1-methyl-1H-pyrazol-4-ylamino)-pyridine-2-carboxylic acid (5-fluoro-pyridin-2-yl)-amide [Example 96] | 57 nM
2 | Cc1csc(NC(=O)c2nc(C)ccc2Nc2cccnc2)n1 [Example 14, 6-Methyl-3-(pyridin-3-ylamino)-pyridine-2-carboxylic acid (4-methyl-thiazol-2-yl)-amide] | 28 nM
3 | Cc1ccc(Nc2cc(C3CC3)nn2C)c(C(=O)Nc2ccc(F)c(C)n2)n1 [Example 103, 3-(5-Cyclopropyl-2-methyl-2H-pyrazol-3-ylamino)-6-methyl-pyridine-2-carboxylic acid (5-fluoro-6-methyl-pyridin-2-yl)-amide] | 14 nM
4 | Cc1ccc(Nc2cncnc2)c(C(=O)Nc2cccc(Cl)c2)n1 [Example 2, 6-Methyl-3-(pyrimidin-5-ylamino)-pyridine-2-carboxylic acid (3-chloro-phenyl)-amide] | 30 nM
5 | Cc1ccc(Nc2cccnc2)c(C(=O)Nc2nc(C(F)(F)F)cs2)n1 [Example 18, 6-Methyl-3-(pyridin-3-ylamino)-pyridine-2-carboxylic acid (4-trifluoromethyl-thiazol-2-yl)-amide] | 78 nM
6 | Cc1ccc(Nc2ccnn2C)c(C(=O)Nc2csc(C)n2)n1 [Example 92, 6-Methyl-3-(2-methyl-2H-pyrazol-3-ylamino)-pyridine-2-carboxylic acid (2-methyl-thiazol-4-yl)-amide] | 10 nM
7 | Cc1ccc(Nc2cccc(C#N)c2)c(C(=O)Nc2nc(C(F)(F)F)cs2)n1 [Example 60, 3-(3-Cyano-phenylamino)-6-methyl-pyridine-2-carboxylic acid (4-trifluoromethyl-thiazol-2-yl)-amide] | 367 nM
8 | Cc1cc(NC(=O)c2nc(C)ccc2Nc2cncc(C#N)c2)ccn1 [Example 22, 3-(5-Cyano-pyridin-3-ylamino)-6-methyl-pyridine-2-carboxylic acid (2-methyl-pyridin-4-yl)-amide] | 66 nM
9 | Cc1ccc(Nc2cccc(F)c2)c(C(=O)Nc2ccc(F)c(C)n2)n1 [Example 54, 3-(3-Fluoro-phenylamino)-6-methyl-pyridine-2-carboxylic acid (5-fluoro-6-methyl-pyridin-2-yl)-amide] | 55 nM
10 | Cc1ccc(Nc2cccnc2)c(C(=O)Nc2ccn(C)n2)n1 [Example 16, 6-Methyl-3-(pyridin-3-ylamino)-pyridine-2-carboxylic acid (1-methyl-1H-pyrazol-3-yl)-amide] | 27 nM
11 | Cc1ccc(Nc2cncnc2)c(C(=O)Nc2ncc(C)s2)n1 [Example 106, 6-Methyl-3-(pyrimidin-5-ylamino)-pyridine-2-carboxylic acid (5-methyl-thiazol-2-yl)-amide] | 56 nM
12 | Cc1ccc(Nc2cccnc2)c(C(=O)Nc2ccnc(Cl)c2)n1 [Example 4, 6-Methyl-3-(pyridin-3-ylamino)-pyridine-2-carboxylic acid (2-chloro-pyridin-4-yl)-amide] | 42 nM
13 | Cc1ccc(Nc2cncc(C(F)(F)F)c2)c(C(=O)Nc2ccn(C)n2)n1 [Example 51, 6-Methyl-3-(5-trifluoromethyl-pyridin-3-ylamino)-pyridine-2-carboxylic acid (1-methyl-1H-pyrazol-3-yl)-amide] | 82 nM
14 | Cc1ccc(Nc2cccnc2)c(C(=O)Nc2ccc(F)cn2)n1 [Example 8, 6-Methyl-3-(pyridin-3-ylamino)-pyridine-2-carboxylic acid (5-fluoro-pyridin-2-yl)-amide] | 21 nM
